Experimental data reported in PubChem BioAssay AID330 (DTP/NCI, 2004).
Values joined by “and” are separate entries in the source; they are usually repeats but may differ in a detail not shown here. Equal entries are not always repeated. Inconclusive results and toxic doses are left out. The calls were made as follows: active = survival T/C of 150% or more; inactive = T/C below 125% in these data.

Tested on: P388 leukemia ip, CD2F1 mice, survival T/C
Experiment: NCI In Vivo Anticancer Drug Screen. Data for tumor model P388 Leukemia (intraperitoneal) in CD2F1 (CDF1) mice
Conditions: endpoint: median survival time, higher = longer survival
Method in brief: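 Mice carrying the transplanted tumor received test compound or vehicle. Survival was recorded in each group, and the value is the treated-group measurement divided by that of the vehicle-treated control group.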

[1] = dose: 25.0 mg/kg/injection, schedule: Q01DX005 (ip), vehicle: Klucel (hydroxypropylcellulose) (HPC)
[2] = dose: 50.0 mg/kg/injection, schedule: Q01DX005 (ip), vehicle: Klucel (hydroxypropylcellulose) (HPC)
[3] = dose: 100.0 mg/kg/injection, schedule: Q01DX005 (ip), vehicle: Klucel (hydroxypropylcellulose) (HPC)
[4] = dose: 200.0 mg/kg/injection, schedule: Q01DX005 (ip), vehicle: Klucel (hydroxypropylcellulose) (HPC)
[5] = dose: 50.0 mg/kg/injection, schedule: Q01DX005 (ip), vehicle: saline with Tween-80
[6] = dose: 100.0 mg/kg/injection, schedule: Q01DX005 (ip), vehicle: saline with Tween-80
[7] = dose: 200.0 mg/kg/injection, schedule: Q01DX005 (ip), vehicle: saline with Tween-80
[8] = dose: 100.0 mg/kg/injection, schedule: Q01DX001 (ip), vehicle: saline
[9] = dose: 200.0 mg/kg/injection, schedule: Q01DX001 (ip), vehicle: saline
[10] = dose: 400.0 mg/kg/injection, schedule: Q01DX001 (ip), vehicle: saline
[11] = dose: 50.0 mg/kg/injection, schedule: Q01DX009 (ip), vehicle: saline with Tween-80
[12] = dose: 50.0 mg/kg/injection, schedule: Q01DX009 (ip), vehicle: saline
[13] = dose: 200.0 mg/kg/injection, schedule: Q01DX009 (ip), vehicle: saline with Tween-80
[14] = dose: 60.0 mg/kg/injection, schedule: Q01DX005 (ip), vehicle: saline with Tween-80
[15] = dose: 120.0 mg/kg/injection, schedule: Q01DX005 (ip), vehicle: saline with Tween-80
[16] = dose: 240.0 mg/kg/injection, schedule: Q01DX005 (ip), vehicle: saline with Tween-80
[17] = dose: 12.5 mg/kg/injection, schedule: Q01DX009 (ip), vehicle: saline with Tween-80
[18] = dose: 25.0 mg/kg/injection, schedule: Q01DX009 (ip), vehicle: saline with Tween-80
[19] = dose: 100.0 mg/kg/injection, schedule: Q01DX009 (ip), vehicle: saline with Tween-80
[20] = dose: 100.0 mg/kg/injection, schedule: Q04DX003 (ip), vehicle: saline with Tween-80
[21] = dose: 200.0 mg/kg/injection, schedule: Q04DX003 (ip), vehicle: saline with Tween-80
[22] = dose: 400.0 mg/kg/injection, schedule: Q04DX003 (ip), vehicle: saline with Tween-80

Measured: T/C

CC(C)CCCC(C)Cc1cc(CC(C)CCCC(C)C)n(C)n1 (stereo not drawn)
inactive: [1] 108 % of control and 109 % of control and 97 % of control | [2] 102 % of control and 109 % of control and 96 % of control | [3] 101 % of control and 105 % of control and 111 % of control | [4] 108 % of control and 121 % of control and 96 % of control | dose: 400.0 mg/kg/injection, schedule: Q01DX005 (ip), vehicle: Klucel (hydroxypropylcellulose) (HPC) 100 % of control

O=C(O)C1CCCN1C(=O)c1cccc(Cl)c1 (stereo not drawn)
inactive: [5] 94 % of control | [6] 96 % of control | [7] 87 % of control

O=C(N=Nc1c(O)[nH]c2ccccc12)C(F)(F)F
inactive: [5] 108 % of control | [6] 101 % of control | [7] 108 % of control

COc1ccc(C2CCCCCC2)c(OC)c1OC
inactive: dose: 50.0 mg/kg/injection, schedule: Q01DX009 (ip), vehicle: Klucel (hydroxypropylcellulose) (HPC) 98 % of control and 108 % of control | dose: 100.0 mg/kg/injection, schedule: Q01DX009 (ip), vehicle: Klucel (hydroxypropylcellulose) (HPC) 113 % of control | dose: 200.0 mg/kg/injection, schedule: Q01DX009 (ip), vehicle: Klucel (hydroxypropylcellulose) (HPC) 103 % of control and 105 % of control

N#Cc1c(-c2ccccc2)c(-c2ccccc2)n[nH]c1=O
inactive: dose: 25.0 mg/kg/injection, schedule: Q04DX002 (ip), vehicle: distilled water + Tween-80 99 % of control | dose: 50.0 mg/kg/injection, schedule: Q04DX002 (ip), vehicle: distilled water + Tween-80 100 % of control | [8] 100 % of control | dose: 100.0 mg/kg/injection, schedule: Q04DX002 (ip), vehicle: distilled water + Tween-80 98 % of control | [9] 96 % of control | dose: 200.0 mg/kg/injection, schedule: Q04DX002 (ip), vehicle: distilled water + Tween-80 98 % of control | [10] 100 % of control

CCCCOP(=O)(O)OCCCC.[Th]
inactive: dose: 25.0 mg/kg/injection, schedule: Q01DX001 (ip), vehicle: saline with Tween-80 113 % of control | dose: 50.0 mg/kg/injection, schedule: Q01DX001 (ip), vehicle: saline with Tween-80 100 % of control | dose: 100.0 mg/kg/injection, schedule: Q01DX001 (ip), vehicle: saline with Tween-80 102 % of control | dose: 400.0 mg/kg/injection, schedule: Q01DX001 (ip), vehicle: saline with Tween-80 97 % of control

CCCCCC(N)C(C)=O (stereo not drawn)
active: [13] 187 % of control | dose: 400.0 mg/kg/injection, schedule: Q01DX009 (ip), vehicle: saline with Tween-80 187 % of control
inactive: dose: 12.5 mg/kg/injection, schedule: Q01DX009 (ip), vehicle: saline 110 % of control | dose: 25.0 mg/kg/injection, schedule: Q01DX009 (ip), vehicle: saline 106 % of control | [11] 106 % of control and 97 % of control | [12] 105 % of control

C=CCn1c(-c2ccccn2)n[nH]c1=S
inactive: [14] 102 % of control | [15] 101 % of control | [16] 100 % of control

COC(=O)C(C#N)=C(SC)SC
inactive: [17] 112 % of control | [18] 116 % of control | [11] 103 % of control and 91 % of control

CCN(CC)CCNc1ccc(C)c2sc3c(O)cccc3c(=O)c12
inactive: [11] 104 % of control | [19] 100 % of control | [13] 104 % of control

CCOC(=O)C(C(=O)OCC)=C(N)C(Cl)(Cl)Cl
inactive: [1] 116 % of control | [2] 117 % of control | [3] 111 % of control | [4] 110 % of control

Cc1ccc(S(=O)/C=C/c2ccccc2)cc1 (stereo not drawn)
inactive: dose: 50.0 mg/kg/injection, schedule: Q01DX009 (ip), vehicle: other 103 % of control | dose: 100.0 mg/kg/injection, schedule: Q01DX009 (ip), vehicle: other 97 % of control | dose: 200.0 mg/kg/injection, schedule: Q01DX009 (ip), vehicle: other 101 % of control

O=c1c2ccccc2sc2c([N+](=O)[O-])ccc(NCC3CCCN4CCCCC34)c12 (stereo not drawn)
inactive: dose: 38.5 mg/kg/injection, schedule: Q01DX005 (ip), vehicle: saline with Tween-80 96 % of control | dose: 77.0 mg/kg/injection, schedule: Q01DX005 (ip), vehicle: saline with Tween-80 96 % of control | dose: 154.0 mg/kg/injection, schedule: Q01DX005 (ip), vehicle: saline with Tween-80 118 % of control

CCOC(=O)CN1CCC(C(=O)OC)CC1
inactive: dose: 100.0 mg/kg/injection, schedule: Q04DX003 (ip), vehicle: saline 100 % of control | dose: 200.0 mg/kg/injection, schedule: Q04DX003 (ip), vehicle: saline 100 % of control | dose: 400.0 mg/kg/injection, schedule: Q04DX003 (ip), vehicle: saline 100 % of control

CCc1ccc2c(c1)C(O)(c1ccccc1)c1ccccc1C2(O)c1ccccc1 (stereo not drawn)
inactive: [11] 95 % of control | [19] 94 % of control | [13] 93 % of control

C=CCNS(=O)(=O)c1ccccc1
inactive: dose: 25.0 mg/kg/injection, schedule: Q04DX003 (ip), vehicle: saline with Tween-80 102 % of control | dose: 50.0 mg/kg/injection, schedule: Q04DX003 (ip), vehicle: saline with Tween-80 107 % of control | [20] 94 % of control | [21] 107 % of control | [22] 107 % of control

CCOC(=O)C1=C(C)/C(=C\c2[nH]c(C)c(C(=O)OCC)c2C)N=C1C
inactive: [14] 103 % of control | [15] 94 % of control | [16] 96 % of control

CC(C)(C)SSCCN
inactive: [5] 103 % of control | [6] 109 % of control

c1ccc(-c2nnn(-n3nnc(-c4ccccc4)n3)n2)cc1
inactive: [20] 97 % of control | [21] 100 % of control | [22] 97 % of control

Cc1cc(Br)ccc1N=Cc1ccc(C=Nc2ccc(Br)cc2C)cc1
inactive: [12] 90 % of control | dose: 100.0 mg/kg/injection, schedule: Q01DX009 (ip), vehicle: saline 86 % of control | dose: 200.0 mg/kg/injection, schedule: Q01DX009 (ip), vehicle: saline 92 % of control

CC(=O)OB(OC(C)=O)O[B-]12Oc3ccccc3C=[N+]1c1ccccc1S2 (stereo not drawn)
inactive: dose: 100.0 mg/kg/injection, schedule: Q04DX002 (ip), vehicle: saline with Tween-80 106 % of control | dose: 200.0 mg/kg/injection, schedule: Q04DX002 (ip), vehicle: saline with Tween-80 97 % of control | dose: 400.0 mg/kg/injection, schedule: Q04DX002 (ip), vehicle: saline with Tween-80 92 % of control

CCN(CC)CCSC(=O)N1c2ccccc2Sc2ccc(Cl)cc21
inactive: dose: 3.12 mg/kg/injection, schedule: Q01DX009 (ip), vehicle: saline with Tween-80 96 % of control | dose: 6.25 mg/kg/injection, schedule: Q01DX009 (ip), vehicle: saline with Tween-80 104 % of control and 105 % of control | [17] 96 % of control | [18] 93 % of control | [11] 100 % of control

CN(N=O)C(=O)N[C@@H](C=O)[C@@H](O)[C@H](O)[C@H](O)CO
inactive: dose: 31.25 mg/kg/injection, schedule: Q01DX001 (ip), vehicle: other 105 % of control and 106 % of control | dose: 62.5 mg/kg/injection, schedule: Q01DX001 (ip), vehicle: other 105 % of control and 109 % of control | dose: 80.0 mg/kg/injection, schedule: Q04DX003 (ip), vehicle: citric acid 110 % of control | dose: 80.0 mg/kg/injection, schedule: Q04DX003 (ip), vehicle: other 108 % of control | dose: 120.0 mg/kg/injection, schedule: Q04DX003 (ip), vehicle: other 107 % of control and 114 % of control | dose: 125.0 mg/kg/injection, schedule: Q01DX001 (ip), vehicle: other 111 % of control and 117 % of control | dose: 180.0 mg/kg/injection, schedule: Q04DX003 (ip), vehicle: citric acid 119 % of control | dose: 180.0 mg/kg/injection, schedule: Q04DX003 (ip), vehicle: other 118 % of control and 122 % of control | dose: 240.0 mg/kg/injection, schedule: Q04DX003 (ip), vehicle: other 112 % of control and 120 % of control | dose: 500.0 mg/kg/injection, schedule: Q01DX001 (ip), vehicle: other 90 % of control

O=C1C=CC(CCCCCn2ccc(=O)[nH]c2=O)C(=O)N1 (stereo not drawn)
inactive: [8] 90 % of control | [9] 100 % of control | [10] 100 % of control
